The text below walks through data of patent US20060252807A1, “Novel ortho-terphenyl inhibitors of p38 kinase and methods of treating inflammatory disorders” (Kalypsys, Inc., priority 2005, published 2006).

The target in the test is T1, active p38 alpha enzyme (Upstate Biotechnology) (Homo sapiens, UniProt Q16539).
T1 construct: purchased Upstate Biotechnology
T1 sequence (Q16539 whole entry): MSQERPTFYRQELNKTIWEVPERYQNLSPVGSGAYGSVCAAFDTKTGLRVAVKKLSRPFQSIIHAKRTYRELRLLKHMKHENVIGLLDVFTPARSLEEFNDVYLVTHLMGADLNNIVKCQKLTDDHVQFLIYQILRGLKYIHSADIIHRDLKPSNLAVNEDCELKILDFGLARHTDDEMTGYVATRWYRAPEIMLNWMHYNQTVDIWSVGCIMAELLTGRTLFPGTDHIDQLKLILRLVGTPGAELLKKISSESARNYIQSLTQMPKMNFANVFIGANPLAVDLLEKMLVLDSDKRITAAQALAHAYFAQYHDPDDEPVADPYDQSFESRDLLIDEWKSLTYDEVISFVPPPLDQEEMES
Put plainly: p38α biochemical assay (ATP turnover, luminescent detection, Cambrex PKlight). To be noted: p38α biochemical assay, Table 1 Biological Activity. In short, it runs like this:
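Active human p38α was incubated with full-length MapkapK2 protein as substrate and 1.4 uM ATP (final) for 2 hours at 30C. Buffer: 200 mM Tris, 100 mM MgCl2, 1.5 mM EGTA, 4 mM CaCl2, 20 mM MOPS, 1 mM EDTA, 1% glycerol, 0.1% β-mercaptoethanol, 1 mg/ml BSA. Total ATP turnover read by luminescence.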
`CC(C)NC(=O)c1csc(-c2c(-c3ccc(F)cc3)noc2CNC(=O)CNC(=O)OC(C)(C)C)n1` [Example 676] returned a concentration for half-maximal inhibition (IC50) above 1000 nM.
As for `Cc1c(C(=O)NCc2onc(-c3ccc(F)cc3)c2-c2nc(C(=O)NC(C)C)cs2)oc2ccccc12` [Example 677], the figure is above 1000 nM; as for `CC(C)NC(=O)c1csc(-c2c(-c3ccc(F)cc3)noc2CNC(=O)CC2Cc3ccccc3C2)n1` [Example 678], above 1000 nM.
For `CC(C)NC(=O)c1csc(-c2c(-c3ccc(F)cc3)noc2CNC(=O)C2CCc3ccccc3C2)n1` (stereo not drawn) [Example 679] the value was above 1000 nM.
In turn, `COc1ccccc1/C=C/C(=O)NCc1onc(-c2ccc(F)cc2)c1-c1nc(C(=O)NC(C)C)cs1` [Example 680] registered an IC50 above 1000 nM.
Take `CC(C)NC(=O)c1csc(-c2c(-c3ccc(F)cc3)noc2CNC(=O)c2csc3ccccc23)n1` [Example 681]: the half-maximal inhibitory concentration (IC50) is above 1000 nM.
For `CC(C)NC(=O)c1csc(-c2c(-c3ccc(F)cc3)noc2CNC(=O)c2cc3ccccc3s2)n1` [Example 682] the value was above 1000 nM; for `CCCCc1ccc(C(=O)NCc2onc(-c3ccc(F)cc3)c2-c2nc(C(=O)NC(C)C)cs2)cc1` [Example 683], above 1000 nM; for `CC(C)NC(=O)c1csc(-c2c(-c3ccc(F)cc3)noc2CNC(=O)c2ccc(C(C)(C)C)cc2)n1` [Example 684], above 1000 nM.
On to `CC(C)NC(=O)c1csc(-c2c(-c3ccc(F)cc3)noc2CNC(=O)c2ccc(N(C)C=O)cc2)n1` [Example 685], for which the concentration for half-maximal inhibition (IC50) is above 1000 nM.
For `CC(=O)Nc1cccc(C(=O)NCc2onc(-c3ccc(F)cc3)c2-c2nc(C(=O)NC(C)C)cs2)c1` [Example 686] the value was above 1000 nM; for `CC(C)NC(=O)c1csc(-c2c(-c3ccc(F)cc3)noc2CNC(=O)COc2ccccc2C=O)n1` [Example 687], above 1000 nM.
For `CC(=O)Oc1ccc(C(=O)NCc2onc(-c3ccc(F)cc3)c2-c2nc(C(=O)NC(C)C)cs2)cc1` [Example 688] the value was above 1000 nM.
Consider `COC(=O)c1ccc(C(=O)NCc2onc(-c3ccc(F)cc3)c2-c2nc(C(=O)NC(C)C)cs2)cc1` [Example 689], for which the IC50 was above 1000 nM.
Compound `CC(=O)Oc1cccc(C(=O)NCc2onc(-c3ccc(F)cc3)c2-c2nc(C(=O)NC(C)C)cs2)c1` [Example 690] gave an IC50 above 1000 nM.
With `CC(=O)Oc1ccccc1C(=O)NCc1onc(-c2ccc(F)cc2)c1-c1nc(C(=O)NC(C)C)cs1` [Example 691], the concentration for half-maximal inhibition (IC50) was at most 1000 nM.
As for `CC(C)NC(=O)c1csc(-c2c(-c3ccc(F)cc3)noc2CNC(=O)Cc2ccc3c(c2)OCO3)n1` [Example 692], the figure is above 1000 nM; as for `CCCOc1ccc(C(=O)NCc2onc(-c3ccc(F)cc3)c2-c2nc(C(=O)NC(C)C)cs2)cc1` [Example 693], above 1000 nM.
As for `CC(C)NC(=O)c1csc(-c2c(-c3ccc(F)cc3)noc2CNC(=O)c2ccc(OC(C)C)cc2)n1` [Example 694], the figure is above 1000 nM.
As for `Cc1cccc([N+](=O)[O-])c1C(=O)NCc1onc(-c2ccc(F)cc2)c1-c1nc(C(=O)NC(C)C)cs1` [Example 695], the figure is above 1000 nM; as for `Cc1cccc(C(=O)NCc2onc(-c3ccc(F)cc3)c2-c2nc(C(=O)NC(C)C)cs2)c1[N+](=O)[O-]` [Example 696], above 1000 nM; as for `Cc1ccc([N+](=O)[O-])c(C(=O)NCc2onc(-c3ccc(F)cc3)c2-c2nc(C(=O)NC(C)C)cs2)c1` [Example 697], at most 1000 nM.
The compound `Cc1c(C(=O)NCc2onc(-c3ccc(F)cc3)c2-c2nc(C(=O)NC(C)C)cs2)cccc1[N+](=O)[O-]` [Example 698] gave an IC50 above 1000 nM.
For `COc1ccc(OC)c(C(=O)NCc2onc(-c3ccc(F)cc3)c2-c2nc(C(=O)NC(C)C)cs2)c1` [Example 699] the value was above 1000 nM.
`COc1ccc(C(=O)NCc2onc(-c3ccc(F)cc3)c2-c2nc(C(=O)NC(C)C)cs2)c(OC)c1` [Example 700]: the IC50 is above 1000 nM.
Take `COc1cccc(OC)c1C(=O)NCc1onc(-c2ccc(F)cc2)c1-c1nc(C(=O)NC(C)C)cs1` [Example 701]: the IC50 was above 1000 nM.
As for `COc1cc(OC)cc(C(=O)NCc2onc(-c3ccc(F)cc3)c2-c2nc(C(=O)NC(C)C)cs2)c1` [Example 702], the figure is above 1000 nM; as for `COc1cccc(C(=O)NCc2onc(-c3ccc(F)cc3)c2-c2nc(C(=O)NC(C)C)cs2)c1OC` [Example 703], above 1000 nM; as for `Cc1ccc(SCC(=O)NCc2onc(-c3ccc(F)cc3)c2-c2nc(C(=O)NC(C)C)cs2)cc1` [Example 704], above 1000 nM.
For `CC(C)NC(=O)c1csc(-c2c(-c3ccc(F)cc3)noc2CNC(=O)/C=C/c2ccc(Cl)cc2)n1` [Example 705] the value was above 1000 nM.
Turning to `CC(C)NC(=O)c1csc(-c2c(-c3ccc(F)cc3)noc2CNC(=O)/C=C/c2ccccc2Cl)n1` [Example 706], the IC50 was above 1000 nM.
As for `CC(C)NC(=O)c1csc(-c2c(-c3ccc(F)cc3)noc2CNC(=O)c2ccc([N+](=O)[O-])c(O)c2)n1` [Example 707], the IC50 was above 1000 nM.
As for `CC(C)NC(=O)c1csc(-c2c(-c3ccc(F)cc3)noc2CNC(=O)c2cc(O)ccc2[N+](=O)[O-])n1` [Example 708], the figure is above 1000 nM; as for `CC(C)NC(=O)c1csc(-c2c(-c3ccc(F)cc3)noc2CNC(=O)c2cc([N+](=O)[O-])ccc2O)n1` [Example 709], above 1000 nM.
Regarding `CC(C)NC(=O)c1csc(-c2c(-c3ccc(F)cc3)noc2CNC(=O)c2cc([N+](=O)[O-])ccc2F)n1` [Example 710], the IC50 is above 1000 nM.
For `CC(C)NC(=O)c1csc(-c2c(-c3ccc(F)cc3)noc2CNC(=O)c2cc(F)ccc2[N+](=O)[O-])n1` [Example 711] the value was above 1000 nM; for `CC(C)NC(=O)c1csc(-c2c(-c3ccc(F)cc3)noc2CNC(=O)c2ccc(F)c([N+](=O)[O-])c2)n1` [Example 712], above 1000 nM.
As for `COc1ccc(Cl)cc1C(=O)NCc1onc(-c2ccc(F)cc2)c1-c1nc(C(=O)NC(C)C)cs1` [Example 713], the figure is above 1000 nM; as for `COc1cc(Cl)ccc1C(=O)NCc1onc(-c2ccc(F)cc2)c1-c1nc(C(=O)NC(C)C)cs1` [Example 714], above 1000 nM; as for `CC(C)NC(=O)c1csc(-c2c(-c3ccc(F)cc3)noc2CNC(=O)Cc2ccc(O)c(Cl)c2)n1` [Example 715], above 1000 nM.
In turn, `COc1cc(C(=O)NCc2onc(-c3ccc(F)cc3)c2-c2nc(C(=O)NC(C)C)cs2)cc(Cl)n1` [Example 716] returned an IC50 above 1000 nM.
For the compound `CC(C)NC(=O)c1csc(-c2c(-c3ccc(F)cc3)noc2CNC(C=O)c2ccc3cc(O)ccc3c2)n1` (stereo not drawn) [Example 717], the IC50 is above 1000 nM.
Take `CC(C)NC(=O)c1csc(-c2c(-c3ccc(F)cc3)noc2CNC(=O)c2c(O)ccc3ccccc23)n1` [Example 718]: the IC50 is above 1000 nM.
In the case of `CC(C)NC(=O)c1csc(-c2c(-c3ccc(F)cc3)noc2CNC(=O)c2cc3ccccc3cc2O)n1` [Example 719], the IC50 was above 1000 nM.
For `CC(C)NC(=O)c1csc(-c2c(-c3ccc(F)cc3)noc2CNC(=O)c2ccc3ccccc3c2O)n1` [Example 720] the value was above 1000 nM; for `CC(C)NC(=O)c1csc(-c2c(-c3ccc(F)cc3)noc2CNC(=O)c2ccc3cccc(O)c3n2)n1` [Example 721], above 1000 nM.
`CC(C)NC(=O)c1csc(-c2c(-c3ccc(F)cc3)noc2CNC(=O)C(C)NC(=O)OC(C)(C)C)n1` (stereo not drawn) [Example 722] registered an IC50 above 1000 nM.
For `CC(C)NC(=O)c1csc(-c2c(-c3ccc(F)cc3)noc2CNC(=O)C(C)NC(=O)OC(C)(C)C)n1` (stereo not drawn) [Example 723] the value was above 1000 nM.
`CC(C)NC(=O)c1csc(-c2c(-c3ccc(F)cc3)noc2CNC(=O)c2ccccc2C(F)(F)F)n1` [Example 724] came in with a half-maximal inhibitory concentration (IC50) above 1000 nM.
For `CC(C)NC(=O)c1csc(-c2c(-c3ccc(F)cc3)noc2CNC(=O)CCc2nc3ccccc3[nH]2)n1` [Example 725] the value was above 1000 nM.
`CC(C)NC(=O)c1csc(-c2c(-c3ccc(F)cc3)noc2CNC(=O)c2cccc(Cl)c2Cl)n1` [Example 726] came in with an IC50 above 1000 nM.
For `CC(C)NC(=O)c1csc(-c2c(-c3ccc(F)cc3)noc2CNC(=O)c2ccc(Cl)cc2Cl)n1` [Example 727] the value was above 1000 nM; for `CC(C)NC(=O)c1csc(-c2c(-c3ccc(F)cc3)noc2CNC(=O)c2cc(Cl)ccc2Cl)n1` [Example 728], above 1000 nM.
As for `CC(C)NC(=O)c1csc(-c2c(-c3ccc(F)cc3)noc2CNC(=O)c2cc(F)c(F)c(O)c2F)n1` [Example 729], the figure is above 1000 nM.
`CC(C)NC(=O)c1csc(-c2c(-c3ccc(F)cc3)noc2CNC(=O)/C=C/c2ccc3c(c2)OCO3)n1` [Example 730] yielded an IC50 above 1000 nM.
Compound `Cc1ccc(C(=O)CCC(=O)NCc2onc(-c3ccc(F)cc3)c2-c2nc(C(=O)NC(C)C)cs2)cc1` [Example 731] displayed an IC50 above 1000 nM.
As for `CCCCCc1ccc(C(=O)NCc2onc(-c3ccc(F)cc3)c2-c2nc(C(=O)NC(C)C)cs2)cc1` [Example 732], the figure is above 1000 nM; as for `CC(C)NC(=O)c1csc(-c2c(-c3ccc(F)cc3)noc2CNC(=O)c2cc(F)c(F)cc2Cl)n1` [Example 733], above 1000 nM.
As for `CC(C)NC(=O)c1csc(-c2c(-c3ccc(F)cc3)noc2CNC(=O)c2cc(F)c(Cl)cc2F)n1` [Example 734], the figure is above 1000 nM; as for `CCN(CC)c1ccc(C(=O)NCc2onc(-c3ccc(F)cc3)c2-c2nc(C(=O)NC(C)C)cs2)cc1` [Example 735], above 1000 nM.
`COc1cc(/C=C/C(=O)NCc2onc(-c3ccc(F)cc3)c2-c2nc(C(=O)NC(C)C)cs2)ccc1O` [Example 736]: the IC50 was above 1000 nM.
As for `COc1ccc(/C=C/C(=O)NCc2onc(-c3ccc(F)cc3)c2-c2nc(C(=O)NC(C)C)cs2)cc1O` [Example 737], the IC50 was above 1000 nM.
For `CCCCOc1ccc(C(=O)NCc2onc(-c3ccc(F)cc3)c2-c2nc(C(=O)NC(C)C)cs2)cc1` [Example 738] the value was above 1000 nM.
